From patent US20220153750A1, “SALTS OF 5,6-DIHYDRO-4H-THIENO[2,3-C]PYRROL-4-ONE COMPOUND AS ERK INHIBITORS” (Eli Lilly and Company, priority 2019, published 2022)
Converted amounts (≈) assume the structure as drawn.

Legend:
Assay type in all cases: physicochemical
[1] = Hygroscopicity (moisture sorption analysis at 25° C.); details: for Hygroscopicity, weight increase: 25° C.
Procedure: The purpose of this assay is to determine the hygroscopicity of the solid forms of the present invention under conditions normally encountered in manufacturing and storage of drug products. Moisture analysis is performed at 25° C. using a TA instrument. The following experimental conditions are used: sample size ˜3-20 mg, dry sample at 0% RH until <0.0 weight change over 10 minutes, 5-95% RH adsorption/desorption range, and 5% RH step interval. The minimum equilibration criterion is <0.01% weight change for 5 minutes.

[2] = Formulation assessment: API powder flowability, compressibility, sticking; details: compared to the free base
Procedure: (§1) The purpose of this study is to evaluate the properties of certain solid forms of the present invention with respect to the suitability for manufacturing high drug load tablets. The API flowability is measured using a United States Pharmacopeia method for bulk/tapped density and a powder rheometer. The formula contains ˜64.6 wt % Example 2, 26.4 wt % microcrystalline cellulose (diluent/binder), 5 wt % croscarmellose sodium (disintegrant), 2 wt % sodium stearyl fumarate (lubricant), and 2 wt % silicone dioxide (glidant). The components are combined and tumble blended in a single step at a 40 g scale. The resulting blend is then tested using the same bulk/tapped density and powder rheometry tests. The blend is compressed on a single-station, instrumented tablet press. The accelerated studies are comprised of prototype tablets of methanesulfonic acid dihydrate (Example 2) at a 50% free base equivalence drug load. The tablets are prepared and stored in open-dish containers to evaluate stability. Samples are stored at 40° C./11% RH, 40° C./75% RH, 50° C./22% RH, and 50° C./50% RH. At designated time points the samples are characterized by XRPD for physical form and by HPLC using the following conditions: Column Zorbax Bonus-RP, 3.5-micron, 4.6×75 mm, mobile phase A is 0.1% TFA in water, mobile phase B is 0.1% TFA in ACN, gradient is 95% A at time 0 to 23% A at 9.5 minutes-12.1 minutes, 5% A at time 13-16 minutes, and 95% A at time 16.1 to 20 minutes with a flow rate of 1.5 mL/minute, a column temperature of 30° C., UV at 227 nM, an injection volume of 5 and autosampler at ambient temperature. The drug product formulation stress study under accelerated open dish conditions for methanesulfonic acid dihydrate (Example 2) is depicted in Table 5.

[3] = Accelerated open-dish physical stability of prototype tablet (XRPD, HPLC)
Procedure: as §1

[4] = Compaction properties / tabletability (Instron compaction, tensile strength); details: for Tensile: 300 mg compact
Procedure: The purpose of this study is to determine the compaction properties of certain solid forms of the present invention. The experimental compaction testing is evaluated on Instron Universal Testing System equipped with a 50 kN load cell using Natoli 10 mm flat round punches and die for material compression. The profiles are generated at 5, 10, and 15 kN with a target tablet weight of 300 mg for each compact. The three compacts are made at each pressure set point while the Instron is traveling at 50 mm/minute. The compacts final weight is measured on a balance. The tablet's diameter and thickness is measured using Mitutoyo Thickness Gauge and hardness testing is completed on a Vankel Hardness tester using axially breakage.

[5] = Equilibrium solubility of crystalline solid forms in simulated fluids (SGF, FaSSIF, FedSSIF); details: for solubility thermodynamic at 24 h: thermodynamic from solid, room temperature
Procedure: The purpose of this assay is to measure the solubility of certain solid forms of the present invention in comparison to 6,6-dimethyl-2-{2-[(1-methyl-1H-pyrazol-5-yl)amino]pyrimidin-4-yl}-5-[2-(morpholin-4-yl)ethyl]-5,6-dihydro-4H-thieno[2,3-c]pyrrol-4-one (free base). pKa Determination is performed using a UV-metric method. The sample is titrated in a fast-UV triple titration between pH 2-12 at a concentration of 31-19 μM under aqueous condition. Subsequently, the sample is titrated in three UV-metric titrations from pH 1.5-10 at a concentration of 30-27 μM with no precipitation and the observed pKa averages are reported.
To determine the solubility of the three different crystal forms, a single aliquot of the test media (2 mL, see table 4) is added to an accurately weighed sample. Samples are mixed at room temperature for a period of 24 hours. If a solution is observed, more crystalline material is added and the suspension is slurried for at least 2 hours, after which, an aliquot is withdrawn, filtered through a 0.45 μm PTFE filter and characterized by HPLC using the following HPLC conditions: Column Waters)(Bridge Phenyl, 4.6×100 mm, 3.5 μm, mobile phase A is 0.% NH4OH in water, mobile phase B is MeOH, diluent is 75% ACN and 25% water, gradient is 50% A at time 0, 25% A at time 10-13 minutes, and 50% A at time 13.1 to 18 minutes with a flow rate of 0.9 mL/minute, a column temperature of 35° C., UV at 225 nM, an injection volume of 5 and autosampler at ambient temperature. The remaining solids are air dried prior to analysis by XRPD. One replicate from each sample has triplicate HPLC analysis. pH Measurement of the solution is performed using calibrated scientific pH equipment. […] The equilibrium solubility in simulated intestinal fluids of the free base (assumed crystalline) compared to the crystalline methanesulfonic acid dihydrate salt (Example 2) and 4-methylbenzenesulfonic acid salt (Example 3), (assumed crystalline) are shown in Table 4.

Hygroscopicity, weight increase ([1]; 20% RH) | Hygroscopicity, weight increase ([1]; 60% RH) [wt %] | Tensile ([4]; Pressure 64 MPa) [MPa] | Tensile ([4]; Pressure 127 MPa) [MPa] | Tensile ([4]; Pressure 191 MPa) [MPa] | pH of the solution in solubility test ([5]; FaSSIF) | pH of the solution in solubility test ([5]; FedSSIF) | pH of the solution in solubility test ([5]; SGF) | solubility thermodynamic at 24 h ([5]; fessif, FedSSIF) [µg/mL] | solubility thermodynamic at 24 h ([5]; simulated gastric fluid, SGF) [µg/mL] | solubility thermodynamic at 24 h ([5]; FaSSIF) [µg/mL] | Compound | also measured
<0.1 wt % | <0.1 | – | – | – | – | – | – | – | – | – | CS(=O)(=O)O.Cn1nccc1Nc1nccc(-c2cc3c(s2)C(C)(C)N(CCN2CCOCC2)C3=O)n1 [Example 1, 6,6-Dimethyl-2-{2-[(1-methyl-1H-pyrazol-5-yl)amino]pyrimidin-4-yl}-5-[2-(morpholin-4-yl)ethyl]-5,6-dihydro-4H-thieno[2,3-c]pyrrol-4-one; methanesulfonic acid] | Hygroscopicity, weight increase ([1]; 90% RH): ~4 wt %
– | – | 1.2034 | 2.1532 | 2.4082 | 5.33 | 5.09 | 2.62 | > 20300 | > 9700 | > 19000 | CS(=O)(=O)O.Cn1nccc1Nc1nccc(-c2cc3c(s2)C(C)(C)N(CCN2CCOCC2)C3=O)n1 [Example 2, 6,6-Dimethyl-2-{2-[(1-methyl-1H-pyrazol-5-yl)amino]pyrimidin-4-yl}-5-[2-(morpholin-4-yl)ethyl]-5,6-dihydro-4H-thieno[2,3-c]pyrrol-4-one; methanesulfonic acid dihydrate] | compressibility [2]: improved; powder flowability [2]: improved; sticking to tableting tools [2]: reduced sticking; Physical stability in prototype tablet ([3]; 40° C./11% RH, 7 days): Stable; Physical stability in prototype tablet ([3]; 40° C./11% RH, 14 days): Stable; Physical stability in prototype tablet ([3]; 40° C./75% RH, 7 days): Stable; Physical stability in prototype tablet ([3]; 40° C./75% RH, 14 days): Stable; Physical stability in prototype tablet ([3]; 40° C./75% RH, 30 days): Stable; Physical stability in prototype tablet ([3]; 50° C./22% RH, 7 days): Stable; Physical stability in prototype tablet ([3]; 50° C./22% RH, 14 days): Stable; Physical stability in prototype tablet ([3]; 50° C./22% RH, 30 days): Stable; Physical stability in prototype tablet ([3]; 50° C./50% RH, 7 days): Stable; Physical stability in prototype tablet ([3]; 50° C./50% RH, 14 days): Stable; Physical stability in prototype tablet ([3]; 50° C./50% RH, 30 days): Stable; compaction properties compared with excipients ([4]; versus mannitol SD200 and Lactose Anhydrous): in range with excipients; hygroscopicity profile for drug product manufacturing processes [1]: preferred hygroscopicity profiles; Hygroscopicity, weight increase ([1]; 90% RH, dihydrate): <0.1 wt % increase; physical stability with respect to solution mediated form conversion ([5]; FaSSIF and FedSSIF): physically stable; solubility compared to the free base ([5]; FaSSIF and FedSSIF): higher solubility
<0.1 wt % | ~0.2 | – | – | – | 5.44 | 5.04 | 2.46 | 13500 | 7080 | 12200 | Cc1ccc(S(=O)(=O)O)cc1.Cn1nccc1Nc1nccc(-c2cc3c(s2)C(C)(C)N(CCN2CCOCC2)C3=O)n1 [Example 3, 6,6-Dimethyl-2-{2-[(1-methyl-1H-pyrazol-5-yl)amino]pyrimidin-4-yl}-5-[2-(morpholin-4-yl)ethyl]-5,6-dihydro-4H-thieno[2,3-c]pyrrol-4-one; 4-methylbenzenesulfonic acid] | hygroscopicity profile for drug product manufacturing processes [1]: preferred hygroscopicity profiles; Hygroscopicity, weight increase ([1]; 90% RH): ~0.5 wt. % increase wt %; solubility compared to the free base ([5]; FaSSIF and FedSSIF): higher solubility
~0.4 wt. % wt % | ~6 | – | – | – | – | – | – | – | – | – | Cl.Cn1nccc1Nc1nccc(-c2cc3c(s2)C(C)(C)N(CCN2CCOCC2)C3=O)n1 [Example 4, 6,6-Dimethyl-2-{2-[(1-methyl-1H-pyrazol-5-yl)amino]pyrimidin-4-yl}-5-[2-(morpholin-4-yl)ethyl]-5,6-dihydro-4H-thieno[2,3-c]pyrrol-4-one; hydrochloride, reference compound] | –
– | – | 0.5415 | 1.0491 | 1.6394 | 6.70 | 5.36 | 5.05 | 5650 (≈ 12.5 mM) | 3700 (≈ 8.16 mM) | 130 (≈ 0.287 mM) | Cn1nccc1Nc1nccc(-c2cc3c(s2)C(C)(C)N(CCN2CCOCC2)C3=O)n1 [Free base, 6,6-Dimethyl-2-{2-[(1-methyl-1H-pyrazol-5-yl)amino]pyrimidin-4-yl}-5-[2-(morpholin-4-yl)ethyl]-5,6-dihydro-4H-thieno[2,3-c]pyrrol-4-one, reference compound] | –
– | – | 0.9687 | – | 3.1671 | – | – | – | – | – | – | OC[C@H]1O[C@@H](O[C@H]2[C@H](O)[C@@H](O)C(O)O[C@@H]2CO)[C@H](O)[C@@H](O)[C@H]1O (some centres unmarked) [Lactose Anhydrous] | Tensile ([4]; Pressure 128 MPa): 1.9119 MPa
– | – | 0.4873 | 1.1966 | 2.1411 | – | – | – | – | – | – | OC[C@@H](O)[C@@H](O)[C@H](O)[C@H](O)CO [Mannitol SD200] | –
